Results from BigSolDB 2.1.

O=Cc1ccc2c(c1)OCO2
solubility (mole fraction)
Conditions | in acetone | in chloroform | in ethanol | in isopropanol | in water
273.15 K | 0.0521 | 0.427 | 0.0056 | 0.0174 | 0.000118
278.15 K | 0.0655 | 0.477 | 0.0143 | 0.0227 | 0.000153
283.15 K | 0.0876 | 0.531 | 0.0396 | 0.0332 | 0.00022
288.15 K | 0.118 | 0.598 | 0.0697 | 0.0461 | 0.000277
293.15 K | 0.155 | 0.693 | 0.123 | 0.0753 | 0.000393
